Results reported in patent publication EP4768498A1, “PEPTIDE, DROPLET FORMING KIT, DROPLET FORMING METHOD, HYDROPHOBIC SUBSTANCE CONCENTRATION METHOD, AND PROTEIN FOLDING METHOD” (National University Corporation Tokyo University Of …, priority 2023, dated 2026).
Positions of bridges follow the written chain, without caps; N, C: chain ends. No end group written: not given here.

How the values were obtained:
[1] = Phase-contrast microscope observation of droplets; type: physicochemical; settings: 60°C
Description: Phase-contrast microscope observation was carried out using IX-73 manufactured by Olympus Corporation (Tokyo, Japan). A sample was dropped onto a slide glass, and a cover glass was placed over the sample through a silicone spacer having a thickness of 0.2 mm. The sample was observed while incubating at 60°C. The samples were prepared by dissolving FF-ELP4 or LL-ELP4 in 50 mM Tris-HCl (pH: 7.5) containing 0.3 M sodium chloride. FF-ELP4 was dissolved to a final concentration of 1 wt%. LL-ELP4 was dissolved to a final concentration of 5 wt%.
(§1) Phase-contrast microscope observation was carried out using IX-73 manufactured by Olympus Corporation (Tokyo, Japan). A sample in which a cover glass was placed on the peptide solution through a silicone spacer having a thickness of 0.2 mm on a slide glass was observed while incubating at 60°C. The peptide solution was prepared by dissolving LL-ELP4 to 2 wt% and LL-ELP4-SS to 0.7 mM (0.16 wt%) in 50 mM Tris-HCl (pH: 7.5) containing 0.3 M sodium chloride.
as §1, with “LL-ELP4-SS” for “LL-ELP4”, “wt%” for “wt% and LL-ELP4-SS to 0.7 mM (0.16 wt%)”
(§2) A folding test of denatured BPTI was performed in the same manner as in <Folding test of denatured BPTI: LL-ELP4/LL-ELP4-SS mixed solution> described above, except that LL-ELP4-SS was used alone instead of the combination of LL-ELP4 and LL-ELP4-SS. The final concentration of LL-ELP4-SS in the test solution was 0.16 wt%.

[2] = system: Reduced and denatured BPTI; assay: Folding test of denatured BPTI; type: biochemical, Bovine; settings: LL-ELP4-SS alone 0.16 wt%, no droplets, no centrifugation, BPTI 30 µM, 60°C
Description: LL-ELP4 and LL-ELP4-SS were dissolved in a buffer (50 mM Tris-HCl, 0.3 M NaCl, pH: 7.5) and pre-incubated at 60°C for 3 minutes. […] The mixture was incubated at 60°C, and when 1 minute, 10 minutes, and 60 minutes had elapsed, it was centrifuged (10,000 rpm, 25°C, 10 seconds) using a high-spin mini centrifuge HSC-12000 manufactured by Taiyo Corporation (Osaka, Japan) and quickly separated into a supernatant and a precipitate. To both the supernatant and the precipitate, 1 M aqueous HCl was added to quench the reaction. The samples were analyzed by reverse-phase high-performance liquid chromatography (RP-HPLC) using a Primaide HPLC system (1410 UV detector, 1310 column oven, and 1110 pump) manufactured by Hitachi, Ltd. (Tokyo, Japan) and a TSKgel Protein C4-300 column (4.6 mm i.d. × 150 mm) manufactured by Tosoh Corporation (Tokyo, Japan) at a flow rate of 1.0 mL min-1 (Solvent A: water containing 0.05% TFA; Solvent B: acetonitrile containing 0.05% TFA; linear gradient of Solvent A: 95% at 0 min, 80% at 15 min, and 30% at 115 min).
as §2

[3] = Transmittance measurement (transition temperature); type: physicochemical; settings: 2 wt% solution, 50 mM Tris-HCl (pH: 7.5) containing 0.3 M sodium chloride, absorbance at 600 nm
Description: FF-ELP4 or LL-ELP4 was dissolved in 50 mM Tris-HCl (pH: 7.5) containing 0.3 M sodium chloride and incubated at 60°C. LL-ELP4 was dissolved in 50 mM Tris-HCl (pH: 7.5) to a final concentration of 2 wt%. Since FF-ELP4 could not be dissolved to a final concentration of 2 wt%, it was dissolved in 50 mM Tris-HCl (pH: 7.5) to a final concentration of 1 wt%. Transmittance measurement was carried out using an ultraviolet-visible spectrophotometer V-650 manufactured by JASCO Corporation (Tokyo, Japan). For the samples prepared as described above, absorbance at a wavelength of 600 nm was monitored while changing the temperature. A quartz cell (optical path length: 10 mm) of Sansyo Co., Ltd. was used as a measurement cell. […] LL-ELP4-SS was dissolved in 50 mM Tris-HCl (pH: 7.5) containing 0.3 M sodium chloride and incubated at 60°C. LL-ELP4-SS was dissolved in 50 mM Tris-HCl (pH: 7.5) to a final concentration of 2 wt%. Transmittance measurement was carried out using an ultraviolet-visible spectrophotometer V-650 manufactured by JASCO Corporation (Tokyo, Japan). For the samples prepared as described above, absorbance at a wavelength of 600 nm was monitored while changing the temperature. A quartz cell (optical path length: 10 mm) of Sansyo Co., Ltd. was used as a measurement cell.

[4] = system: Reduced and denatured BPTI; assay: Evaluation of incorporation of denatured BPTI into droplets; parameters: species or system Bovine; settings: for Reduced and denatured BPTI Inside droplets / Reduced and denatured BPTI Outside droplets: BPTI 30 µM, 60°C overnight
Description: (§3) FF-ELP4 or LL-ELP4 was dissolved in 50 mM Tris-HCl (pH: 7.5) containing 0.3 M sodium chloride, and pre-incubated at 60°C for 1 minute. […] The mixture was incubated at 60°C overnight, centrifuged (8,000 rpm, 25°C, 30 seconds) using a high-spin mini centrifuge HSC-12000 manufactured by Taiyo Corporation (Osaka, Japan), and quickly separated into a supernatant and a precipitate (droplets). 400 µL of a 1 M HCl aqueous solution was added to each of the supernatant and the precipitate to stop the reaction. For each of the supernatant and the precipitate, the reduced and denatured BPTI or the native BPTI was quantified by HPLC analysis. The analysis was performed by reverse-phase high-performance liquid chromatography (RP-HPLC) using a Primaide HPLC system (1410 UV detector, 1310 column oven, 1110 pump) manufactured by Hitachi High-Tech Corporation (Tokyo, Japan) and a TSKgel Protein C4-300 column (4.6 mmφ × 150 mm) manufactured by Tosoh Corporation (Tokyo, Japan) at a flow rate of 1.0 mL·min^-1 (Solvent A: water containing 0.05% TFA, Solvent B: acetonitrile containing 0.05% TFA; ratio of Solvent A: linear gradient of 95% at 0 min, 80% at 15 min, and 30% at 115 min).

[5] = system: Native BPTI; assay: Evaluation of incorporation of native BPTI into droplets; parameters: species or system Bovine; settings: BPTI 30 µM, 60°C overnight
Description: as §3

Row | Substance | droplet formation ([1]; 0.16 wt% solution in the folding test) | droplets observed ([1]; 2 wt% solution) | added reduced and denatured BPTI detected as native structural BPTI [2] [%] | transition temperature [3] [°C] | droplets observed ([1]; 5 wt% solution) | Reduced and denatured BPTI Inside droplets ([4]; peptide 2 wt%) [%] | Reduced and denatured BPTI Outside droplets ([4]; peptide 2 wt%) [%] | Reduced and denatured BPTI Inside droplets ([4]; peptide 5 wt%) [%] | Reduced and denatured BPTI Outside droplets ([4]; peptide 5 wt%) [%] | aggregation of reduced and denatured BPTI recovered from the droplets ([4]; peptide 5 wt%, redispersed in water) | Native BPTI Inside droplets ([5]; peptide 2 wt%) [%] | Native BPTI Outside droplets ([5]; peptide 2 wt%) [%] | Native BPTI Inside droplets ([5]; peptide 5 wt%) [%] | Native BPTI Outside droplets ([5]; peptide 5 wt%) [%]
1 | LL-(VPGVG)2-CGHC-(VPGVG)2 (LLVPGVGVPGVGCGHCVPGVGVPGVG; disulfide 13-16 (inferred)) [LL-ELP4-SS] | droplets were not formed | Droplets of appropriate size were observed | ≥ 99 | 48 |  |  |  |  |  |  |  |  |  | 
2 | Ac-LLVPGVGVPGVGVPGVGVPGVG-NH2 [LL-ELP4, LL-(VPGVG)4] |  |  |  | 53 | droplets of appropriate size were observed | 91 | 9 | > 99 | < 1 | aggregation was suppressed | 3 | 97 | 7 | 93
